Reference: ChEMBL document CHEMBL1201862, “PubChem BioAssay data set” (2004)
The source made the active and inactive calls.

Tests used:
[1] = cells
[2] = target: Luciferin 4-monooxygenase (Photinus pyralis, UniProt P08659); test: Counter Screen for Luciferase-based Assay Positives. [Related pubchem assays: 620, 618, 411 ]
[3] = target: T1, Oxysterols receptor LXR-beta (Homo sapiens, UniProt P55055); test: LXR agonists, Gal4 luciferase reporter, dose response, counter-screen for ssDAF-12 agonist project, cell-based, luminescence, HEK293, S. stercoralis campaign (AID 720737); type: functional; details: read-out: IC50 (the source's name)
T1 sequence (P55055 whole entry): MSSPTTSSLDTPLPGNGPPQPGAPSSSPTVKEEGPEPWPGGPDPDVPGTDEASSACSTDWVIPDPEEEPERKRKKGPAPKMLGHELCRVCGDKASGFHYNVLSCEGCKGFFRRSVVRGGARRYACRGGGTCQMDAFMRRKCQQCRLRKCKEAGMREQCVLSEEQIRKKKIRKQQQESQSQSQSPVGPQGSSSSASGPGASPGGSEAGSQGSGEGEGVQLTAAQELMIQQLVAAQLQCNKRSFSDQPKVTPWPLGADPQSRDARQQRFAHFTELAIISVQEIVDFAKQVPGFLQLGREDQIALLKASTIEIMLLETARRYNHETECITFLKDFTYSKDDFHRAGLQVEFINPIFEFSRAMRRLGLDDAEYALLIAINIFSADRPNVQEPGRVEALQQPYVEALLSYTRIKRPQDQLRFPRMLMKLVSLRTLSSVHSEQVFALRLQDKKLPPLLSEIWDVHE

[4] = system: HT-1080; test: HT1080 cell viability loss – fluorescence readout (AID 620); type: functional, cell-based; details: Homo sapiens
[5] = Luminescence-based cell-based high throughput dose response assay to identify activators of the DAF-12 from the parasite S. stercoralis (ssDAF-12).; type: functional
[6] = target: T1, Oxysterols receptor LXR-beta; type: functional, cell-based
[7] = A2780 cell killing – plate reader, dry powder samples, cytotoxicity control, dose response (AID 743046); type: functional, cell-based
[8] = HEK293 Cytotoxicity Assay Measured in Cell-Based System Using Plate Reader - 7071-01_Inhibitor_Dose_CherryPick_Activity_Set2.; type: functional
[9] = target: Paired box protein Pax-8 (Homo sapiens, UniProt Q06710); test: PAX8 transcriptional activity inhibition in RMG-I – RMG-I cells, luciferase, cherry-pick, dose response (AID 687027); type: functional, cell-based;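 further: luciferase reporter driven by Pax8 target thyroperoxidase promoter measured by SteadyGlo luminescence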
[10] = system: HEK293; test: viability loss in HEK293T cells – cell-based, ATP luminescence, cherry-pick samples, cytotoxicity control, dose response (AID 687005); type: functional; details: Homo sapiens;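 further: cells exposed to compound for 48 hours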
[11] = OV-90 cell viability loss – plate reader, dry powder, SA8, PAX8 inhibitor project, dose response (AID 743149); type: functional, cell-based
[12] = growth inhibition of PfATP4-mutant resistant parasites – NITD609-resistant line, SYBR Green, dry powder, dose response (AID 1159571); type: functional, cell-based;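 further: parasites synchronized at ring stage by sorbitol before testing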
[13] = OVCAR-3 cell viability loss – plate reader, dry powder samples, PAX8 inhibitor project, dose response (AID 743044); type: functional, cell-based
[14] = PAX5 cellular inhibition readout – cell-based, plate reader, dry powder samples, selectivity assay for PAX8 inhibitor project, dose response (AID 743047); type: functional;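 further: HEK293 cells carrying a Pax5 driven CD19 promoter luciferase reporter; potency of inhibitors that lower reporter luminescence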
[15] = OVCAR4 cell viability loss – plate reader, dry powder, SA11, cytotoxicity control for PAX8 inhibitor project, dose response (AID 743150); type: functional, cell-based; details: OVCAR-4
[16] = inhibitors acting on PAX2 in cells – cell-based, plate reader, dry powder samples, selectivity assay for PAX8 inhibitor project, dose response (AID 743048); type: functional;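 further: HEK293 cells carrying a WT1 promoter luciferase reporter driven by expressed Pax2; potency is for inhibition of Pax2 driven reporter signal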
[17] = Dd2 malaria parasite growth inhibition potency – SYBR Green, dry powder samples, dose response (AID 1159566); type: functional, cell-based;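 further: potency for growth inhibition with lower SYBR green DNA signal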
[18] = COV434 cell viability loss – plate reader, dry powder, SA7, cytotoxicity control for PAX8 inhibitor project, dose response (AID 743145); type: functional, cell-based
[19] = P. falciparum Dd2 growth inhibitors, dose response, SYBR Green, cherry-picked samples (AID 1159567); type: functional, cell-based
[20] = COV362 cell viability loss – plate reader, dry powder, SA12, cytotoxicity control for PAX8 inhibitor project, dose response (AID 743144); type: functional, cell-based
[21] = growth inhibition of yeast DHODH-expressing 3D7 parasites – SYBR Green, dry powder samples, dose response (AID 1159570); type: functional, cell-based;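 further: parasite growth measured after 72 hours of compound exposure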
[22] = toxicity to human hepatoma HepG2 cells – cell-based, cherry-picked samples, cytotoxicity control, dose response (AID 1159577); type: functional
[23] = PAX8-dependent cell viability loss – plate reader, dry powder, dose response (AID 743049); type: functional, cell-based
[24] = target: NAD-dependent protein deacylase sirtuin-5, mitochondrial (Homo sapiens, UniProt Q9NXA8); test: blockers of sirtuin-5 peptide desuccinylation – biochemical, fluorescence imaging, cherry-pick, set 6, dose response (AID 720597)
[25] = viability loss in HEK293T cells – cell-based, CellTiter-Glo luminescence, dry powder, set 6, cytotoxicity control, dose response (AID 651949); type: functional; details: HEK293
[26] = HeLa cell viability loss – plate reader, dry powder, cytotoxicity control, dose response (AID 651946); type: functional, cell-based
[27] = inhibitors of non-replicating M. tuberculosis, dose response, luciferase, dry powder (AID 651620); type: functional; details: Mycobacterium tuberculosis
[28] = inhibitors of non-replicating M. tuberculosis, dose response, luciferase, dry powder (AID 651619); type: functional; details: Mycobacterium tuberculosis

Chain of Paired box protein Pax-8 (Q06710 whole entry): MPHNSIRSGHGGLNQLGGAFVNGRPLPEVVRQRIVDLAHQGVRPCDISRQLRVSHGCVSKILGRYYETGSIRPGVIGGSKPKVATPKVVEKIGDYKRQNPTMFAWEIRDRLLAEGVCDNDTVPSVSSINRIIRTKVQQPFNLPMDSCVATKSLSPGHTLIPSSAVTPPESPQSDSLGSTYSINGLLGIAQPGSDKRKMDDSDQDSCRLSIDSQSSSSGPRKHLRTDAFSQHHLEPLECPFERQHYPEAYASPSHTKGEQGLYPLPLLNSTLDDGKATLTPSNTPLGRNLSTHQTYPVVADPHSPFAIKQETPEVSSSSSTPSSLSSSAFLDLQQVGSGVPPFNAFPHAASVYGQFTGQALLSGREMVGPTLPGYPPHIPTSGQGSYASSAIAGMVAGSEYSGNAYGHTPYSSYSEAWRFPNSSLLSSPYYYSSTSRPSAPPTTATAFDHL
Chain of Luciferin 4-monooxygenase (P08659 whole entry, the tested form may be a part): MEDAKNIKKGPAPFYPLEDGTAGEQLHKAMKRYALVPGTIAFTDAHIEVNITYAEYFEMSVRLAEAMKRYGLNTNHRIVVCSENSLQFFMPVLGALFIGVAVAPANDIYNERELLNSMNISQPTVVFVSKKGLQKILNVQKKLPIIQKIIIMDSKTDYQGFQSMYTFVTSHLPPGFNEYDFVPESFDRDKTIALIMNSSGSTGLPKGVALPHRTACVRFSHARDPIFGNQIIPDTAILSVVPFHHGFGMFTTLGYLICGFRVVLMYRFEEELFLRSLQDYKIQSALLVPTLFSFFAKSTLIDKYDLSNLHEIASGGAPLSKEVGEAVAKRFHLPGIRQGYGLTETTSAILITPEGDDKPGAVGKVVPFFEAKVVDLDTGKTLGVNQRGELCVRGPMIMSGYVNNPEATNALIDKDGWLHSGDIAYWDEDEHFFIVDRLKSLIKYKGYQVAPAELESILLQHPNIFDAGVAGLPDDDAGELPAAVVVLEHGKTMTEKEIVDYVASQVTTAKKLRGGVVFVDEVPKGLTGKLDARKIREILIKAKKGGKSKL
Chain of NAD-dependent protein deacylase sirtuin-5, mitochondrial (Q9NXA8 whole entry): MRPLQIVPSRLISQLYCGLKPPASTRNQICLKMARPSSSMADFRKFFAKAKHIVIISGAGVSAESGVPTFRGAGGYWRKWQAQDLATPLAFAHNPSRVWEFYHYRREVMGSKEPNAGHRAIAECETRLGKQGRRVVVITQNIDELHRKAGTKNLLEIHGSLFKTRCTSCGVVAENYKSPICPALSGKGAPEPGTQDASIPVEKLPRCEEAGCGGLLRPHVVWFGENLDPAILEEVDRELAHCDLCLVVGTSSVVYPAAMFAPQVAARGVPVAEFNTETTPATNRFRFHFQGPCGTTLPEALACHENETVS

In the case of O=C1c2ccccc2C(=O)C1c1nccc2ccccc12, the EC50 [1] is reported as > 67.5 µM (inactive), the EC50 [2] is reported as 1.3 µM (active) and the EC50 [3] is reported as > 67.5 µM (inactive). The EC50 [4] was > 50 µM (not active), the IC50 [5] was > 67.5 µM (inactive) and the EC50 [6] was > 67.5 µM (inactive).

For COc1cccc(S(=O)(=O)N(C)C[C@@H]2OCc3ccccc3-c3ccccc3C(=O)N([C@@H](C)CO)C[C@@H]2C)c1, the AC50 [7] was 53.8 µM (active), the AC50 [8] was 36 µM (active) and the AC50 [9] was 15.9 µM (active). The AC50 [10] was 36 µM (active).

For N#C[C@H]1[C@@H](c2ccc(C#Cc3ccccc3F)cc2)[C@@H](CO)N1C(=O)C1CCCCC1, the AC50 [11] was 27.7 µM (active), the AC50 [12] was 1.23 µM (active) and the AC50 [13] was 16.1 µM (active). For the same compound, the AC50 [14] was 13 µM (active), the AC50 [15] was 3.01 µM (active) and the AC50 [16] was 14.2 µM (active). For the same compound, the AC50 [17] was 0.584 µM (active), the AC50 [18] was 20.3 µM (active) and the AC50 [9] was 3.09 µM (active). The AC50 [19] was 1.09 µM (active), the AC50 [20] was 36.2 µM (active) and the AC50 [21] was 0.8 µM (active). The AC50 [22] was > 39 µM (inactive) and the AC50 [23] was 7.86 µM (active).

With C[C@H](CO)N1C[C@H](C)[C@H](CN(C)C(=O)Cc2ccccc2)Oc2ncc(C3=CCCCC3)cc2C1=O the AC50 [24] was > 30 µM (inactive).

With Fc1ccc(Cn2cc(CSc3nnc(-c4ccc(Cl)cc4)o3)nn2)cc1 the AC50 [25] was > 52 µM (inactive), the AC50 [26] was > 52 µM (inactive) and the IC90 [27] was 1 µM (active). The IC90 [28] was 1 µM (active).
